Measured values reported in ChEMBL document CHEMBL5131568, “Discovery of an Oral, Rule of 5 Compliant, Interleukin 17A Protein-Protein Interaction Modulator for the Potential Treatment of Psoriasis and Other Inflammatory Diseases” (J Med Chem, 2022).
Converted amounts (≈) assume the structure as drawn.

Columns and labels:
[1] = Metabolic stability in human liver microsomes assessed as apparent clearance at 0.5 uM measured upto 40 mins in presence of NADPH by LCMS/MS analysis; assay type: ADME, Microsome; settings: read-out: CLH
[2] = Inhibition of IL-8 release in glycosylated IL-17A/TNFalpha-stimulated human HEKa cells at 10 uM incubated for 72 hrs under serum free medium by AlphaLISA; assay type: functional
[3] = Inhibition of IL-8 release in non-glycosylated IL-17A/TNFalpha-stimulated human HEKa incubated for 72 hrs under serum free medium by AlphaLISA; assay type: functional, cell-based
[4] = Inhibition of IL-8 release in glycosylated IL-17A/TNFalpha-stimulated human HEKa incubated for 72 hrs under serum free medium by AlphaLISA; assay type: functional, cell-based
[5] = molecular target: Voltage-gated inwardly rectifying potassium channel KCNH2 (Homo sapiens, UniProt Q12809); assay: Inhibition of human ERG; assay type: toxicity
Sequence of Voltage-gated inwardly rectifying potassium channel KCNH2 (Q12809 whole entry): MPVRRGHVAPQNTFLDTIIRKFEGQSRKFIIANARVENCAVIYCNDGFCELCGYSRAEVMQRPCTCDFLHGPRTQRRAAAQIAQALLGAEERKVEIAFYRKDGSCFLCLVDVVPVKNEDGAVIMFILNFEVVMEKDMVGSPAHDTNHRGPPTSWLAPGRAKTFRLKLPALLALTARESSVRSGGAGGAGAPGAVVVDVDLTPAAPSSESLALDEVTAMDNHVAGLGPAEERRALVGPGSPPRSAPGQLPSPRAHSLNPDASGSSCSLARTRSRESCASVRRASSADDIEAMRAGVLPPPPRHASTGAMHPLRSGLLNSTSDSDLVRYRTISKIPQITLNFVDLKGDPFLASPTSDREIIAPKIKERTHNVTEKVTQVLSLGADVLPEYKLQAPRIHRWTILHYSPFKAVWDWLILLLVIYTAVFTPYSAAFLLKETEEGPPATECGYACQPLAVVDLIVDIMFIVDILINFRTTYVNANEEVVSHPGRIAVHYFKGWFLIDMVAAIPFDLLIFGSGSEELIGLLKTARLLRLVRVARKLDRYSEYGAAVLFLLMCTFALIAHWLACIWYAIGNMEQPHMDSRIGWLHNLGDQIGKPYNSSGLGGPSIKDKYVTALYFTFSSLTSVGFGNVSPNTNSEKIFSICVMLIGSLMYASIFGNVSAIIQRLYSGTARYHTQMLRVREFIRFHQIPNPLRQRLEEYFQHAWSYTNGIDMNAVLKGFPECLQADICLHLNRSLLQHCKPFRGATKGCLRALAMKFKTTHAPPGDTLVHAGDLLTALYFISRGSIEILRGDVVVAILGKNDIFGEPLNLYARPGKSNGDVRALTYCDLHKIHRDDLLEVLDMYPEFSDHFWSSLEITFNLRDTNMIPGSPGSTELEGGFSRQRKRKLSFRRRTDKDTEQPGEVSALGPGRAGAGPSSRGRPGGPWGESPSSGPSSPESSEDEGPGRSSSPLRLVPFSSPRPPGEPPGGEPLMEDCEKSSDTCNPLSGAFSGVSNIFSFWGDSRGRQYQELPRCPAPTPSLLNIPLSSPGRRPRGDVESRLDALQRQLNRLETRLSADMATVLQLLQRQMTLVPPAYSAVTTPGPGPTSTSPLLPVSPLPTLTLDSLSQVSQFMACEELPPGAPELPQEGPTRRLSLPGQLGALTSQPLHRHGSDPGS

[6] = Volume of distribution at steady state in Sprague-Dawley rat at 0.1 mg/kg, iv measured upto 24 hrs by LCMS/MS analysis; assay type: ADME, organism-based; settings: in vivo, read-out: Vdss
[7] = Solubility in phosphate buffer at pH 7.4 measured after 24 hrs by HPLC-UV analysis; assay type: physicochemical
Interleukin-17A = molecular target: T1, Interleukin-17A (Homo sapiens, UniProt Q16552); assay: Binding affinity to human IL-17A assessed as thermal stability by measuring increase in unfolding temperature by differential scanning fluorimetry
T1 sequence (Q16552 whole entry): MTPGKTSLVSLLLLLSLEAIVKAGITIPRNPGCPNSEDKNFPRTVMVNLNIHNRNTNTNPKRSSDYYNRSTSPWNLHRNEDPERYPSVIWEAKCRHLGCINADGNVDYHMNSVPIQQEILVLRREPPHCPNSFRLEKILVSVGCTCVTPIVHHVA

[8] = Solubility in phosphate buffer at pH 2 measured after 24 hrs by HPLC-UV analysis; assay type: physicochemical
[9] = Apparent permeability of compound in human Caco2 cells from apical to basal; assay type: ADME, cell-based; settings: Caco-2
[10] = Apparent permeability of compound in human Caco2 cells from basal to apical; assay type: ADME, cell-based; settings: Caco-2
[11] = Clearance in Sprague-Dawley rat at 0.1 mg/kg, iv measured upto 24 hrs by LCMS/MS analysis; assay type: ADME, organism-based; settings: in vivo
[12] = Half life in Sprague-Dawley rat at 0.1 mg/kg, iv measured upto 24 hrs by LCMS/MS analysis; assay type: ADME, organism-based; settings: in vivo
[13] = Solubility in phosphate buffer at pH 6.5 measured after 24 hrs by HPLC-UV analysis; assay type: physicochemical
[14] = Oral bioavailability in Sprague-Dawley rat at 2.6 mg/kg measured upto 24 hrs by LCMS/MS analysis; assay type: ADME, organism-based; settings: in vivo
[15] = Protein binding in human plasma assessed as unbound fraction at 1 uM by LCMS/MS analysis; assay type: ADME, cell-free
[16] = Inhibition of IL-8 release in non-glycosylated IL-17A/TNFalpha-stimulated human HEKa cells at 6 uM incubated for 72 hrs under serum free medium by AlphaLISA; assay type: functional
[17] = Inhibition of IL-8 release in non-glycosylated IL-17A/TNFalpha-stimulated human HEKa cells at 0.6 uM incubated for 72 hrs under serum free medium by AlphaLISA; assay type: functional

Cn1cnnc1-c1ccc(NC(=O)[C@@H](NC(=O)c2ccnn2C)C(c2ccccc2)c2ccccc2)cc1
CLint scaled at 0.5 µM [1]: < 8 mL/min/kg | inhibition at 10 µM [2]: 47%

Cc1n[nH]c(C)c1-c1ccc(NC(=O)[C@H](Cc2ccccc2Cl)NC(=O)c2ccnn2C)cc1
EC50 [3]: 1100 nM | CLint scaled at 0.5 µM [1]: 24 mL/min/kg

Cc1n[nH]c(C)c1-c1ccc(NC(=O)C(NC(=O)c2ccnn2C)C2CCC3(CC2)CC3)cc1 (stereo not given)
EC50 [3]: 296 nM | CLint scaled at 0.5 µM [1]: < 8 mL/min/kg

Cc1n[nH]c(C)c1-c1ccc(NC(=O)[C@@H](NC(=O)c2ccnn2C)C(C2CC2)C2CC2)cc1
EC50 [3]: 53 nM | CLint scaled at 0.5 µM [1]: < 8 mL/min/kg

O=C1CNC(=O)[C@@H](Cc2ccc(NC(=O)[C@H](Cc3ccccc3Cl)NC(=O)Cc3ccccc3)cc2)NC(=O)CC2(CCCC2)CC(=O)NCCCCCN1
EC50 [3]: 151 nM | EC50 [4]: 1920 nM | CLint scaled at 0.5 µM [1]: > 200 mL/min/kg

Cc1n[nH]c(C)c1-c1ccc(NC(=O)[C@H](CC2CCCCC2)NC(=O)c2ccnn2C)cc1
EC50 [3]: 935 nM | CLint scaled at 0.5 µM [1]: 57 mL/min/kg

Cc1n[nH]c(C)c1-c1ccc(NC(=O)[C@@H](NC(=O)c2ccnn2C(C)C)C(C2CCC2)C2CCC2)cc1
EC50 [3]: 4.5 nM | CLint scaled at 0.5 µM [1]: 52 mL/min/kg

Cn1cncc1-c1ccc(NC(=O)[C@@H](NC(=O)c2ccnn2C)C(c2ccccc2)c2ccccc2)cc1
EC50 [4]: 947 nM | CLint scaled at 0.5 µM [1]: 21 mL/min/kg

Cc1n[nH]c(C)c1-c1ccc(NC(=O)[C@@H](NC(=O)c2ccnn2C(C)C)C(C2CC2)C2CC2)cc1
IC50 [5]: > 30000 nM | Vd [6]: 2.6 L/kg | solubility at 24 h [7]: < 1 µg/mL | Kd (Interleukin-17A): 32 nM | solubility at 24 h [8]: 40 µg/mL (≈ 84.3 µM) | Papp A→B [9]: 38 ×10⁻⁶ cm/s | Papp B→A [10]: 26 ×10⁻⁶ cm/s | clearance [11]: 7.4 mL/min/kg | EC50 [3]: 15 nM | half-life [12]: 3.7 h | solubility at 24 h [13]: < 1 µg/mL | bioavailability [14]: 100% | CLint scaled at 0.5 µM [1]: < 8 mL/min/kg | fraction unbound at 1 µM [15]: 0.017

Cc1ncn(C)c1-c1ccc(NC(=O)[C@@H](NC(=O)c2ccnn2C)C(c2ccccc2)c2ccccc2)cc1
EC50 [4]: 304 nM | CLint scaled at 0.5 µM [1]: 94 mL/min/kg

CC(C)[C@H](NC(=O)COCCNC(=O)OC(C)(C)C)C(=O)N[C@@H](CC(=O)O)Cc1ccc(NC(=O)[C@H](Cc2ccccc2Cl)NC(=O)C(F)(F)c2ccccc2)cc1
EC50 [3]: 575 nM | CLint scaled at 0.5 µM [1]: 33 mL/min/kg

Cc1[nH]ncc1-c1ccc(NC(=O)[C@@H](NC(=O)c2ccnn2C)C(c2ccccc2)c2ccccc2)cc1
EC50 [4]: 385 nM | CLint scaled at 0.5 µM [1]: < 8 mL/min/kg

Cc1n[nH]c(C)c1-c1ccc(NC(=O)[C@@H](NC(=O)c2ccnn2C)[C@H]2CC[C@H](C)CC2)cc1
EC50 [3]: 50 nM | CLint scaled at 0.5 µM [1]: < 8 mL/min/kg

Cc1n[nH]c(C)c1-c1ccc(NC(=O)[C@H](Cc2ccccc2)NC(=O)c2ccnn2C)cc1
inhibition at 6 µM [16]: 37% | CLint scaled at 0.5 µM [1]: 12 mL/min/kg

CCn1nccc1C(=O)N[C@H](C(=O)Nc1ccc(-c2c(C)n[nH]c2C)cc1)C(C1CC1)C1CC1
EC50 [3]: 26 nM | CLint scaled at 0.5 µM [1]: < 8 mL/min/kg

Cc1n[nH]c(C)c1-c1ccc(NC(=O)[C@@H](NC(=O)c2ccnn2C)C2CCCCCC2)cc1
EC50 [3]: 36 nM | CLint scaled at 0.5 µM [1]: 105 mL/min/kg

Cc1n[nH]c(C)c1-c1ccc(NC(=O)[C@@H](NC(=O)c2ccnn2C)C(C2CCC2)C2CCC2)cc1
EC50 [3]: 10 nM | CLint scaled at 0.5 µM [1]: 9 mL/min/kg

Cc1n[nH]c(C)c1-c1ccc(NC(=O)[C@@H](NC(=O)c2ccnn2C)C2CCCCC2)cc1
EC50 [3]: 208 nM | CLint scaled at 0.5 µM [1]: < 8 mL/min/kg

Cc1n[nH]c(C)c1-c1ccc(NC(=O)[C@@H](NC(=O)c2ccnn2C)C(c2ccccc2)c2ccccc2)cc1
Vd [6]: 2 L/kg | solubility at 24 h [7]: < 1 µg/mL | solubility at 24 h [8]: 25 µg/mL (≈ 48.2 µM) | Papp A→B [9]: 16 ×10⁻⁶ cm/s | Papp B→A [10]: 21 ×10⁻⁶ cm/s | clearance [11]: 7 mL/min/kg | EC50 [4]: 117 nM | half-life [12]: 3.2 h | solubility at 24 h [13]: < 1 µg/mL | bioavailability [14]: 26% | CLint scaled at 0.5 µM [1]: < 8 mL/min/kg | fraction unbound at 1 µM [15]: 0.0011

Cc1n[nH]c(C)c1-c1ccc(NC(=O)[C@@H](NC(=O)c2ccnn2C)c2ccccc2)cc1
inhibition at 0.6 µM [17]: 28% | CLint scaled at 0.5 µM [1]: < 8 mL/min/kg

Cn1nccc1C(=O)N[C@H](C(=O)Nc1ccc(-c2cn[nH]c2)cc1)C(c1ccccc1)c1ccccc1
EC50 [4]: 3380 nM | CLint scaled at 0.5 µM [1]: < 8 mL/min/kg

CCn1nccc1C(=O)N[C@H](C(=O)Nc1ccc(-c2c(C)n[nH]c2C)cc1)C(C1CCC1)C1CCC1
EC50 [3]: 5.5 nM | CLint scaled at 0.5 µM [1]: 44 mL/min/kg

CN(C)C(=O)c1ccc(NC(=O)[C@@H](NC(=O)c2ccnn2C)C(c2ccccc2)c2ccccc2)cc1
EC50 [3]: 5610 nM | CLint scaled at 0.5 µM [1]: < 8 mL/min/kg | inhibition at 10 µM [2]: 52%
